ChEMBL document CHEMBL1143809, “New bis-N9-(methylphenylmethyl)purine derivatives: synthesis and antitumor activity” (2007)

Tests used:
Assay type in all cases: functional
[1] = system: BT-549; assay: Growth inhibition of human BT549 cells after 48 hrs by SRB protein assay; conditions: BT-549, 48 h
[2] = system: OVCAR-5; assay: Growth inhibition of human OVCAR5 cells after 48 hrs by SRB protein assay; conditions: OVCAR-5, 48 h
[3] = system: RXF 393; assay: Growth inhibition of human RXF393 cells after 48 hrs by SRB protein assay; conditions: RXF 393, 48 h
[4] = system: HOP-92; assay: Growth inhibition of human HOP92 cells after 48 hrs by SRB protein assay; conditions: HOP-92, 48 h
[5] = system: OVCAR-8; assay: Growth inhibition of human OVCAR8 cells after 48 hrs by SRB protein assay; conditions: OVCAR-8, 48 h
[6] = system: KM12; assay: Growth inhibition of human KM12 cells after 48 hrs by SRB protein assay; conditions: KM12, 48 h
[7] = system: A498; assay: Growth inhibition of human A498 cells after 48 hrs by SRB protein assay; conditions: A498, 48 h
[8] = system: T47D; assay: Growth inhibition of human T47D cells after 48 hrs by SRB protein assay
[9] = system: SK-MEL-5; assay: Growth inhibition of human SK-MEL-5 cells after 48 hrs by SRB protein assay; conditions: SK-MEL-5, 48 h
[10] = system: TK-10; assay: Growth inhibition of human TK10 cells after 48 hrs by SRB protein assay; conditions: TK-10, 48 h
[11] = system: HOP-62; assay: Growth inhibition of human HOP62 cells after 48 hrs by SRB protein assay; conditions: HOP-62, 48 h
[12] = Growth inhibition of human NCL-H23 cells after 48 hrs by SRB protein assay; conditions: NCL-H23, 48 h
[13] = system: SF-539; assay: Growth inhibition of human SF539 cells after 48 hrs by SRB protein assay; conditions: SF-539, 48 h
[14] = system: SW-620; assay: Growth inhibition of human SW620 cells after 48 hrs by SRB protein assay; conditions: SW-620, 48 h
[15] = system: HCT-15; assay: Growth inhibition of human HCT15 cells after 48 hrs by SRB protein assay; conditions: HCT-15, 48 h
[16] = system: MCF7; assay: Anticancer activity against human MCF7 cells assessed as growth at 100 uM after 48 hrs by SRB protein assay relative to control; conditions: MCF7, 48 h, read-out: Activity
[17] = system: M14; assay: Growth inhibition of human M14 cells after 48 hrs by SRB protein assay; conditions: M14, 48 h
[18] = system: K562; assay: Growth inhibition of human K562 cells after 48 hrs by SRB protein assay; conditions: K562, 48 h
[19] = system: Hs-578T; assay: Growth inhibition of human HS578T cells after 48 hrs by SRB protein assay
[20] = system: NCI-H460; assay: Growth inhibition of human NCL-H460 cells after 48 hrs by SRB protein assay; conditions: NCI-H460, 48 h
[21] = system: MOLT-4; assay: Growth inhibition of human MOLT4 cells after 48 hrs by SRB protein assay; conditions: MOLT-4, 48 h
[22] = system: DU-145; assay: Growth inhibition of human DU145 cells after 48 hrs by SRB protein assay; conditions: DU-145, 48 h
[23] = system: EKVX; assay: Growth inhibition of human EKVX cells after 48 hrs by SRB protein assay
[24] = system: COLO 205; assay: Growth inhibition of human COLO205 cells after 48 hrs by SRB protein assay; conditions: COLO 205, 48 h
[25] = system: SK-MEL-28; assay: Growth inhibition of human SK-MEL-28 cells after 48 hrs by SRB protein assay; conditions: SK-MEL-28, 48 h
[26] = system: SNB-75; assay: Growth inhibition of human SNB75 cells after 48 hrs by SRB protein assay; conditions: SNB-75, 48 h
[27] = system: UACC-257; assay: Growth inhibition of human UACC257 cells after 48 hrs by SRB protein assay; conditions: UACC-257, 48 h
[28] = system: UACC-62; assay: Growth inhibition of human UACC62 cells after 48 hrs by SRB protein assay; conditions: UACC-62, 48 h
[29] = system: PC-3; assay: Growth inhibition of human PC3 cells after 48 hrs by SRB protein assay; conditions: PC-3, 48 h
[30] = system: A549; assay: Growth inhibition of human A549 cells after 48 hrs by SRB protein assay; conditions: A549, 48 h
[31] = system: RPMI-8226; assay: Growth inhibition of human RPMI8226 cells after 48 hrs by SRB protein assay; conditions: RPMI-8226, 48 h
[32] = Growth inhibition of human NCL-H226 cells after 48 hrs by SRB protein assay; conditions: NCL-H226, 48 h
[33] = system: SF-268; assay: Anticancer activity against human SF268 cells assessed as growth at 100 uM after 48 hrs by SRB protein assay relative to control; conditions: SF-268, 48 h, read-out: Activity
[34] = read-out: LC50 (the source's name)

Clc1nc(Cl)c2ncn(Cc3cccc(Cn4cnc5c(Cl)nc(Cl)nc54)c3)c2n1
GI50 [1]: 3.38 µM | TGI [1]: 11 µM | CC50 [1, 34]: 34.7 µM | GI50 [2]: 20.9 µM | TGI [2]: 38 µM | CC50 [2, 34]: 70.8 µM | GI50 [3]: 1.9 µM | TGI [3]: 3.71 µM | CC50 [3, 34]: 7.24 µM | GI50 [4]: 6.16 µM | LC50 [4]: 70.8 µM | TGI [4]: 22.4 µM | GI50 [5]: 4.67 µM | LC50 [5]: 72.4 µM | TGI [5]: 18.6 µM | GI50 [6]: 2.88 µM | LC50 (concentration killing 50% of cells) [6]: 33.1 µM | TGI [6]: 8.91 µM | GI50 [7]: 4.57 µM | TGI [7]: 17.4 µM | CC50 [7, 34]: 46.8 µM | GI50 [8]: 3.02 µM | LC50 [8]: > 100 µM | TGI [8]: 8.51 µM | GI50 [9]: 2.45 µM | LC50 [9]: 22.4 µM | TGI [9]: 5.88 µM | GI50 [10]: 2.45 µM | LC50 (50% lethal concentration) [10]: 26.9 µM | TGI [10]: 7.24 µM | GI50 [11]: 5.01 µM | LC50 [11]: 51.3 µM | TGI [11]: 17.8 µM | GI50 [12]: 8.51 µM | LC50 [12]: 52.5 µM | TGI [12]: 21.9 µM | GI50 [13]: 1.38 µM | LC50 [13]: 7.07 µM | TGI [13]: 3.16 µM | GI50 [14]: 1.82 µM | TGI [14]: 3.31 µM | CC50 [14, 34]: 6.16 µM | GI50 [15]: 5.75 µM | LC50 [15]: 74.1 µM | TGI [15]: 22.4 µM | growth at 100 µM [16]: 0% | GI50 [17]: 2.75 µM | LC50 [17]: 33.9 µM | TGI [17]: 7.58 µM | GI50 [18]: 3.09 µM | TGI [18]: 17 µM | CC50 [18, 34]: > 100 µM | GI50 [19]: 2.69 µM | LC50 (concentration killing 50% of cells) [19]: 83.2 µM | TGI [19]: 7.24 µM | GI50 [20]: 3.71 µM | TGI [20]: 13.5 µM | CC50 [20, 34]: 58.9 µM | GI50 [21]: 3.46 µM | LC50 [21]: > 100 µM | TGI [21]: 13.8 µM | GI50 [22]: 1.73 µM | TGI [22]: 3.09 µM | CC50 [22, 34]: 5.62 µM | GI50 [23]: 3.09 µM | LC50 [23]: 41.7 µM | TGI [23]: 11 µM | GI50 [24]: 3.38 µM | LC50 [24]: > 100 µM | TGI [24]: > 11.2 µM | GI50 [25]: 4.26 µM | LC50 [25]: > 100 µM | TGI [25]: 22.4 µM | GI50 [26]: 2.23 µM | TGI [26]: 5.62 µM | CC50 [26, 34]: 93.3 µM | GI50 [27]: 4.78 µM | TGI [27]: 17.4 µM | CC50 [27, 34]: 56.2 µM | GI50 [28]: 2.39 µM | LC50 (concentration killing 50% of cells) [28]: 22.4 µM | TGI [28]: 5.88 µM | GI50 [29]: 3.98 µM | TGI [29]: 13.5 µM | CC50 [29, 34]: 40.7 µM | GI50 [30]: 11.2 µM | LC50 [30]: 61.6 µM | TGI [30]: 26.3 µM | GI50 [31]: 2.57 µM | TGI [31]: 11.2 µM | CC50 [31, 34]: > 100 µM | GI50 [32]: 4.78 µM | LC50 [32]: > 100 µM | TGI [32]: 26.9 µM | growth at 100 µM [33]: 0%
